Data taken from ChEMBL document CHEMBL1765002, “Inhibitors of the oncogenic transcription factor AP-1 from Podocarpus latifolius” (J Nat Prod, 2011).

Biological target: Transcription factor Jun (Homo sapiens, UniProt P05412)
Test: Inhibition of TPA-induced AP-1 activation in cells expressing beta-lactamase after 18 hrs using FRET substrate by cell-based high-throughput screening assay

Chain of Transcription factor Jun (P05412 whole entry): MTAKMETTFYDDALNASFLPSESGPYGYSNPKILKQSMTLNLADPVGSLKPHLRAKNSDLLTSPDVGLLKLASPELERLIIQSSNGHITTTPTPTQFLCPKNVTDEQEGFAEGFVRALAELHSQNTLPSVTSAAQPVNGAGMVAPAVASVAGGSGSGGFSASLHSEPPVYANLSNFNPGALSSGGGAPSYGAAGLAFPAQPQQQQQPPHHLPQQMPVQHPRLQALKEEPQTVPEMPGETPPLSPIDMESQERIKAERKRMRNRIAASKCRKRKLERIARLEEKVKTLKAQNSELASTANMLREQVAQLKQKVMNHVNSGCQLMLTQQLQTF

SMILES	IC50 [nM]
CC(C)[C@H]1OC(=O)C=C2C1=C[C@H]1OC(=O)[C@@]3(C)CCC[C@@]2(C)[C@@H]13 [NAGILACTONE F]	1500
CC(C)[C@H]1OC(=O)C=C2[C@]3(C)[C@H]4[C@H](OC(=O)[C@@]4(C)[C@@H](O)[C@H]4O[C@H]43)[C@H]3O[C@]213 [INUMAKILACTONE]	4000
